Legend:
[1] = target: T1, RXRa (RXRA) (Homo sapiens, UniProt P19793); assay: NCGC_RXRa_Agonist: GAL4 BLAM Reporter gene assay: RXRa; assay type: cell-based; conditions: agonist mode
T1 sequence (P19793 227-462 limits assumed): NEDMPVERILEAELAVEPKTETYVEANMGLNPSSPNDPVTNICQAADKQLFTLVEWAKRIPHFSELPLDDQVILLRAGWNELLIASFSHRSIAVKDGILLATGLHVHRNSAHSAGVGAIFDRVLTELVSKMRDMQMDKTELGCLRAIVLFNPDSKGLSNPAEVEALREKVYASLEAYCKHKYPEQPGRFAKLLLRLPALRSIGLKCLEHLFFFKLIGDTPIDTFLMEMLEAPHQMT
Protocol: (§1) These assays measure binding constants and enzyme inhibition values for nuclear receptors. The targets include [drawing 67] , [drawing 68] , [drawing 69] , [drawing 70] , [drawing 71] , [drawing 72] , [drawing 73] , [drawing 74] , [drawing 75] and [drawing 76] . Each of the nuclear receptor targets was measured in agonist mode. Assays were run at the NIH Chemical Genomics Center (Rockville, MD).
(§2) Cell-based HTS Assays: These assays measuring binding constants and enzyme inhibition values for nuclear receptors. The targets include AR, ER, FXR, LXR, PPARα, PPARδ, PPARγ, RXRα, RXRβ and PXR. Each of the nuclear receptor targets was measured in both agonist and antagonist mode, but the antagonist data is still undergoing analysis due to possible interference between cytotoxicity and assay activity, so antagonist mode data were not used in the present analysis. Assays were run at the NIH Chemical Genomics Center (Rockville, MD) as part of the Tox21 collaboration. […] The R^2 was required to be ≥0.5. Values where only the highest concentration exceeded 50% activity were excluded to eliminate weak or false positives. Detailed description of the methods, data and analysis methods for this dataset will be presented in a separate publication.

[2] = target: T2, PPARG (peroxisome proliferator-activated receptor gamma) (Homo sapiens, UniProt P37231); assay: ATG_PPARg_TRANS: Factorial reporter gene assay (HepG2); assay type: cell-based; conditions: HepG2 reporter
T2 construct: expressed in transfected cells; host or cells: HepG2
T2 sequence (P37231 1-505): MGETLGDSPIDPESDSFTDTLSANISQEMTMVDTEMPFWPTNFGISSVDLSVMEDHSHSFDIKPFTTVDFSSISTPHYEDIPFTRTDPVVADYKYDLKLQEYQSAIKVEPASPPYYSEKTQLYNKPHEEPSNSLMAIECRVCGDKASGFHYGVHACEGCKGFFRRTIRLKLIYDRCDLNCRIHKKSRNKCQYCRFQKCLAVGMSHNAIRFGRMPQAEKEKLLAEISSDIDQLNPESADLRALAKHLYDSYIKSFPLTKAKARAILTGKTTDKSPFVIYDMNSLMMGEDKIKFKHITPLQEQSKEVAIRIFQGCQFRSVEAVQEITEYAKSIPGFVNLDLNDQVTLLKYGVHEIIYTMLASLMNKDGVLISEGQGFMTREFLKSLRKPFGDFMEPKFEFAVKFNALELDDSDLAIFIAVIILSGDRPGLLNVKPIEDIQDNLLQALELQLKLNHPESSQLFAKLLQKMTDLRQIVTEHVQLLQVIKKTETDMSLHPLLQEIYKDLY
Procedure, shortened: (§3)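 Each chemical received seven doses, the first at its MTC, then successive three-fold dilutions. Host cells: HepG2 carrying either cis (PXRE, 48 sites) or trans one-hybrid (ERRg, FXR, PPARg; 25 units) reporter libraries.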

[3] = test system: ABCB1; assay: CLZD_ABCB1: Change in expression of ABCB1 (primary human hepatocytes); assay type: cell-based; conditions: 24 hr
Procedure, shortened: (§4)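 Chemicals are tested in human hepatocyte primary cultures over 0.004-40 µM (5 concentrations) for 6, 24 or 48 hr, and concentration- and time-dependent transcript changes are read by quantitative nuclease protection assay.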

[4] = test system: ABCB11; assay: CLZD_ABCB11: Change in expression of ABCB11 (primary human hepatocytes); assay type: cell-based; conditions: 24 hr
Protocol: This is a collection of multiplexed gene expression assays focused on Phase I and II xenobiotic metabolizing enzymes and transporters. Human primary cell cultures were treated with chemicals at 5 concentrations (0.004-40 [drawing 42] M) for 6, 24 and 48 hr. Concentration- and time-response profiles of chemicals were measured by the expression of key nuclear receptor target genes, activities of CYP1A enzymes (EROD), and cell morphology. Fourteen gene targets were monitored by quantitative nuclease protection assay including: six representative cytochrome P-450 genes, four hepatic transporters, three Phase II conjugating enzymes, and one endogenous metabolism gene involved in cholesterol synthesis. The target genes associated with nuclear receptor pathways are as follows: [drawing 43] and [drawing 44] with [drawing 45]; [drawing 46] , [drawing 47] , [drawing 48] , [drawing 49] , [drawing 50] and [drawing 51] with [drawing 52]; [drawing 53] , [drawing 54] , [drawing 55] and [drawing 56] with [drawing 57]; [drawing 58] with [drawing 59]; and [drawing 60] with [drawing 61] . Assays were run in primary human hepatocyte cultures by CellzDirect Invitrogen Inc. (Durham, NC), in collaboration with EPA.
Multiplexed Gene Expression in Human Primary Hepatocytes: This is a collection of multiplexed gene expression assays focused on Phase I and II metabolic enzymes and transporters. […] Fourteen gene targets were monitored by quantitative nuclease protection assay: six representative cytochrome P450 genes, four hepatic transporters, three Phase II conjugating enzymes, and one endogenous metabolism gene involved in cholesterol synthesis. Cells were exposed at 5 concentrations (0.004-40 µM) for 6, 24 or 48 hr. Gene targets are sentinels for five nuclear receptor signaling pathways: AhR, CAR, PXR, FXR, and PPARα. All gene are associated with nuclear receptor pathways: CYP1A1 and CYP1A2 with AHR; ABCB1, ABCG2, CYP2B6, CYP2C9, CYP2C19 and UGT1A1 with CAR; CYP3A4, GSTA2, SLCO1B1 and SULT2A1 with PXR; HMGCS2 with PPARA; and ABCB11 with FXR. […] Detailed description of the methods, data and analysis methods for this dataset will be presented in a separate publication.

[5] = test system: CYP1A1; assay: CLZD_CYP1A1: Change in expression of CYP1A1 (primary human hepatocytes); assay type: cell-based; conditions: 24 hr
Procedure, shortened: as §4

[6] = test system: CYP1A2; assay: CLZD_CYP1A2: Change in expression of CYP1A2 (primary human hepatocytes); assay type: cell-based; conditions: 24 hr
Procedure, shortened: as §4

[7] = test system: CYP3A4; assay: CLZD_CYP3A4: Change in expression of CYP3A4 (primary human hepatocytes); assay type: cell-based; conditions: 24 hr
Procedure, shortened: as §4

[8] = target: T3, PXR (NR1I2) (Homo sapiens, UniProt O75469); assay: NVS_NR_hPXR: Human PXR Fluormone PXR (SXR) green (cell-free HTS); assay type: binding
T3 sequence (O75469 1-434): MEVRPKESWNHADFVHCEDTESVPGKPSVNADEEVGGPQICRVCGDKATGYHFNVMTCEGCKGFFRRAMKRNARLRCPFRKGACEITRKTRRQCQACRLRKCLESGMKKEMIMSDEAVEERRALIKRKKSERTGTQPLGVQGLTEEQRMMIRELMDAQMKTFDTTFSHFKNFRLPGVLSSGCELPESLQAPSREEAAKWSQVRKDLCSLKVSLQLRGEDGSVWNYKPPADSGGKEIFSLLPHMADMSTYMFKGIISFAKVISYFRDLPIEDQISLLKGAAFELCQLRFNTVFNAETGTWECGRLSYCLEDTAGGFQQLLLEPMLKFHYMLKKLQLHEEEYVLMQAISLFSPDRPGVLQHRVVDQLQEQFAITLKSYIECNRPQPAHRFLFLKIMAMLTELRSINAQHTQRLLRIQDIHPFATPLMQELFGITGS
Procedure, shortened: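 Cell-free biochemical binding assays; chemicals first screened at a single concentration of 25 […] M in duplicate wells. Signals normalised to same-plate solvent controls as percent of neutral control, and AC50 values came from Hill-equation fits of concentration-response curves.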

[9] = test system: Rat Liver; conditions: chronic study, rat liver; ref ToxRefDB; cited from earlier work
[10] = test system: Rat Liver; conditions: chronic study, rat liver; ref ToxRefDB; cited from earlier work; remark: listed apart in the source
[11] = test system: Rat Liver; conditions: chronic study, rat liver; ref ToxRefDB; cited from earlier work; remark: listed apart in the source
[12] = target: T4, CAR (NR1I3) (Homo sapiens, UniProt Q14994); assay: ATG_PBREM_CIS: Factorial reporter gene assay (HepG2); assay type: cell-based; parameters: endogenous in cells; host or cells: HepG2; conditions: HepG2 reporter
T4 sequence (Q14994 1-352): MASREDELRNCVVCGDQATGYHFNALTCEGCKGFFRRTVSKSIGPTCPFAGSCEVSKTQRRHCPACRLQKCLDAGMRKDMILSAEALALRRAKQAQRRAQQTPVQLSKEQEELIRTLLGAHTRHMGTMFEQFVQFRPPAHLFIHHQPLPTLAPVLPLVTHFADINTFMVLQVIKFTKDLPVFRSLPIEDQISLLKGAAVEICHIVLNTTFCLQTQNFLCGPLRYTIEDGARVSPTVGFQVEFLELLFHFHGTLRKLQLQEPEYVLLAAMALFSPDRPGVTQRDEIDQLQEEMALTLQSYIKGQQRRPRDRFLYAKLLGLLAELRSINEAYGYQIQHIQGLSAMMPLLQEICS
Protocol: A multiple reporter transcription unit (MRTU) library consisting of 48 transcription factor binding sites was transfected into the HepG2 human liver hepatoma cell line. In addition to the cis-acting reporter genes (CIS), a modification of the approach was used to generate a trans-system (TRANS) with a mammalian one-hybrid assay consisting of an additional 25 MRTU library reporting the activity of nuclear receptor super-family members. […] These assays were performed by Attagene Inc. (Morrisville NC) under contract to EPA.
In addition to the cis-acting reporter genes (CIS), a modification of the approach was used to generate a trans-system (TRANS) with a mammalian one-hybrid assay consisting of an additional 25 MRTU library reporting the activity of nuclear receptor super-family members. […] Chemicals were then tested in the CIS and TRANS assays at seven concentrations starting at the MTC and followed by three-fold serial dilutions. These assays were performed by Attagene Inc. (Morrisville NC) under contract to EPA. Detailed description of the methods, data and analysis methods for this dataset will be presented in a separate publication.

[13] = target: T3, PXR (NR1I2); assay: ATG_PXRE_CIS: Factorial reporter gene assay (HepG2); assay type: cell-based; parameters: endogenous in cells; host or cells: HepG2; conditions: HepG2 reporter
Procedure, shortened: as §3

[14] = test system: CYP2B6; assay: CLZD_CYP2B6: Change in expression of CYP2B6 (primary human hepatocytes); assay type: cell-based; conditions: 24 hr
Procedure, shortened: as §4

[15] = target: T5, PPARg (PPARG) (Homo sapiens, UniProt P37231); assay: NCGC_PPARg_Agonist: GAL4 BLAM Reporter gene assay: PPARg; assay type: cell-based; parameters: expressed in transfected cells; host or cells: HEK293; conditions: agonist mode
T5 sequence (P37231 1-505): T2 sequence (P37231 1-505)
Protocol: as §1, §2

Question: With `OCCOc1ccccc1` [r243] as the molecule, how does the NCGC_RXRa_Agonist [1] read?
Answer: 4.774

Question: For `COC(=O)N(OC)c1ccccc1COc1ccn(-c2ccc(Cl)cc2)n1` [r270], which ATG_PPARg_TRANS [2] is on record?
Answer: 6.119

Question: What about the CLZD_ABCB1_24 [3] of the same molecule?
Answer: 5.275

Question: And the CLZD_ABCB11_24 [4]?
Answer: 5.366

Question: And the CLZD_CYP1A1_24 [5]?
Answer: 6.198

Question: What about the CLZD_CYP1A2_24 [6] of the same molecule?
Answer: 6.309

Question: And the CLZD_CYP3A4_24 [7]?
Answer: 5.335

Question: What about the NVS_NR_hPXR [8] of the same molecule?
Answer: 5.183

Question: And the CHR_Rat_Liver_1_AnyLesion [9]?
Answer: 6

Question: What about the CHR_Rat_Liver_2_PreneoplasticLesion [10] of the same molecule?
Answer: 0

Question: What about the CHR_Rat_Liver_3_NeoplasticLesion [11] of the same molecule?
Answer: 0

Question: What about the ATG_PBREM_CIS [12] of the same molecule?
Answer: 5.658

Question: And the ATG_PXRE_CIS [13]?
Answer: 5.62

Question: Which ATG_PPARg_TRANS [2] does the source give for `Fc1ccc(Oc2ccnc3cc(Cl)cc(Cl)c23)cc1` [r277] here?
Answer: 5.18

Question: What about the CLZD_CYP1A1_24 [5] of the same molecule?
Answer: 5.128

Question: And the CLZD_CYP1A2_24 [6]?
Answer: 5.172

Question: What about the CLZD_CYP2B6_24 [14] of the same molecule?
Answer: 4.999

Question: What about the CHR_Rat_Liver_1_AnyLesion [9] of the same molecule?
Answer: 0

Question: What about the CHR_Rat_Liver_2_PreneoplasticLesion [10] of the same molecule?
Answer: 0

Question: And the CHR_Rat_Liver_3_NeoplasticLesion [11]?
Answer: 0

Question: And the NCGC_PPARg_Agonist [15]?
Answer: 5.174

Source: paper PMC3038857, “Using Nuclear Receptor Activity to Stratify Hepatocarcinogens” (PLoS ONE, 2011)
